Assay results: patent WO2016169030A1, “Fumarate and crystals of pyridylamine compound” (priority 2015, dated 2016)

assay: Humidity (wettability/hygroscopicity) test, Chinese Pharmacopoeia 2010; type: physicochemical; conditions: Guidelines for Drug Wetting Test, Chinese Pharmacopoeia 2010 Edition 2 Appendix XIX J; Table 2

Wet weight gain [%]	Structure (SMILES)
61.75	CC(=O)Nc1ncc(-c2cnn(C3CCNCC3)c2)cc1O[C@H](C)c1c(Cl)ccc(F)c1Cl [Compound of formula (II), N-Acetyl-3-[(1R)-1-(2,6-dichloro-3-fluorophenyl)ethoxy]-5-[1-(4-piperidinyl)-1H-pyrazol-4-yl]-2-pyridinamine]
7.83	O=C(O)CC(O)C(=O)O (stereo not drawn) [Malate]
0.80	CC(=O)Nc1ncc(-c2cnn(C3CCNCC3)c2)cc1O[C@H](C)c1c(Cl)ccc(F)c1Cl.O=C(O)/C=C/C(=O)O [Fumarate]
